# From patent US20210106649A1, “SYNERGISTIC COMBINATION OF CHEMOTHERAPY AND PEPTIDE FOR TREATING CANCER” (TOBEBIO Novel Drug Laboratory Co., Ltd., priority 2019, published 2021)
# Ends that are not written are not given here.
# Test system: AsPC-1 pancreatic cancer cells
# Assay: Survival analysis of AsPC-1 pancreatic cancer orthotopic mice model
# Assay type: in vivo, athymic nude mice
# Details: alloferon-1 2.5 mg/kg daily s.c.; paclitaxel 8 mg/kg weekly i.p.; orthotopic AsPC-1 nude mice
# Protocol: AsPC-1, human pancreas adenocarcinoma cell line, was purchased from American Type Culture Collection (ATCC) and maintained in a complete Eagle's minimal essential medium (MEM) medium supplemented with 10% fetal bovine serum (FBS) (Hyclone), non-essential amino acid, sodium pyruvate, penicillin-streptomycin and vitamin solution (Life Technologies). AsPC-1 cells were incubated at 37° C. in a mixture atmosphere of 5% CO2 and 95% […]. Cell lines were authenticated via short tandem repeat (STR) profiling (Cosmogenetech).
# The number of survival days for all animals was recorded and statistical analysis was performed using the GraphPad Prism 8. Kaplan-Meier survival plots were analyzed with the Log-rank (Mantel-Cox) test to compare survival rates between groups. A probability (P) value of <0.05 or lower was considered statistically significant.
row,Compound,Median survival
1,HGVSGHGQHGVHG [Alloferon-1],91 days
2,"CC(=O)O[C@H]1C(=O)[C@@]2(C)[C@H]([C@H](OC(=O)c3ccccc3)[C@]3(O)C[C@H](OC(=O)[C@H](O)[C@@H](NC(=O)c4ccccc4)c4ccccc4)C(C)=C1C3(C)C)[C@]1(OC(C)=O)CO[C@@H]1C[C@@H]2O [Paclitaxel, paclitaxel]",107 days
